In US20240116985A1, “STAPLED PEPTIDES AND METHODS THEREOF” (priority 2020, published 2024):
Read-outs that look alike come from different tables or passages of the source.

Legend:
[1] = target: T1, full-length beta-Catenin (Uniprot ID P35222) (Homo sapiens, UniProt P35222); assay: Fluorescence polarization IC50 (beta-catenin / 5FAM-TCF4 10-53 competition); format: binding; details: fluorescence polarization; read-out: beta-Catenin FP IC50
T1 construct: 10 nM full-length beta-Catenin (Uniprot ID P35222)
T1 sequence (P35222 1-781): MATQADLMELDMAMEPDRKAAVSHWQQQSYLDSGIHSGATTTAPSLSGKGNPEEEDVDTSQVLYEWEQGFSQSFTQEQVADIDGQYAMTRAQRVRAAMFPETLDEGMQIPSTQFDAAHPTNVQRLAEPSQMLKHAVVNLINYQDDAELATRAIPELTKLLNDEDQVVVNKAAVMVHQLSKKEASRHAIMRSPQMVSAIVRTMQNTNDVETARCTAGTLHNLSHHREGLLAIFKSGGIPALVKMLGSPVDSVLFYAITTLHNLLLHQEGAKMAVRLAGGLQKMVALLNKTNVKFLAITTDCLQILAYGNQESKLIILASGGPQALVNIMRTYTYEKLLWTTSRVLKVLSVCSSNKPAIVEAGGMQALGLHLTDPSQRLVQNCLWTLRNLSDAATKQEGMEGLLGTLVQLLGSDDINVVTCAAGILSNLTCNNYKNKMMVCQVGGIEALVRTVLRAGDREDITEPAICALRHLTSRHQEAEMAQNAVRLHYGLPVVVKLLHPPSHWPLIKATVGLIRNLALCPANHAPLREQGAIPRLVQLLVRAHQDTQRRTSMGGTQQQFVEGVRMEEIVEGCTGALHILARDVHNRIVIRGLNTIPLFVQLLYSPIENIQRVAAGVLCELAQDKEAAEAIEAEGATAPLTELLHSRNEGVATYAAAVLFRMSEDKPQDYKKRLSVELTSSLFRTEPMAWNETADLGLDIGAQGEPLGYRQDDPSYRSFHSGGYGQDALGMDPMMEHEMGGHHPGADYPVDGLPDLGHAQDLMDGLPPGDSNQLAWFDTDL

[2] = target: T2, beta-catenin/TCF4 engagement (Homo sapiens, UniProt P35222); assay: Nano-BRET target engagement assay (B-cat-Halo & TCF4-Luc in HEK293 cells); format: cell-based; details: read-out: NanoBRET Abs IC50
T2 construct: expressed in transfected cells; host or cells: HEK293
T2 sequence (P35222 1-781): T1 sequence (P35222 1-781)

| IC50 [1] [µM] | IC50 ([2]; absolute IC50) [µM] | IC50 [2] [µM] | SMILES |
| --- | --- | --- | --- |
| 0.349 | > 20 | – | CC(=O)N1CCC[C@]12CC=CCCCC1(CCCC=CCCCOC(=O)N3CC[C@@](C(=O)N[C@@H](Cc4ccsc4)C(=O)N[C@@H](Cc4csc5ccccc45)C(=O)N[C@@H](CCC(N)=O)C(N)=O)(C3)NC(=O)[C@H](CC(C)C)NC(=O)[C@H](Cc3ccccc3)NC(=O)[C@H](C)NC(=O)[C@H](C)NC(=O)[C@H](Cc3c[nH]c4ccccc34)NC(=O)[C@H](CC(=O)O)NC1=O)NC(=O)[C@H](CC(C)(C)C)NC(=O)[C@H](CC(=O)O)NC2=O (stereo partly drawn) [I-1439, Ac-PL3-Asp-Npg-B5-Asp-Trp-Ala-Ala-Phe-Leu-PyrS2-3Thi-BztA-Gln-NH2] |
| 0.096 | – | 28.5 | CC(=O)N1CCC[C@]12CC=CCCCC1(CCCC=CCCCOC(=O)N3CC[C@@](C(=O)N[C@@H](Cc4ccsc4)C(=O)N[C@@H](Cc4csc5ccccc45)C(=O)N[C@@H](CCC(N)=O)C(N)=O)(C3)NC(=O)[C@H](CC(C)C)NC(=O)[C@H](Cc3ccccc3)NC(=O)[C@H](C)NC(=O)[C@H](C)NC(=O)[C@H](CCC(=O)S)NC(=O)[C@H](CC(=O)O)NC1=O)NC(=O)[C@H](CC(C)(C)C)NC(=O)[C@H](CC(=O)O)NC2=O (stereo partly drawn) [I-1949, Ac-PL3-Asp-Npg-B5-Asp-GluSH-Ala-Ala-Phe-Leu-PyrS2-3Thi-BztA-Gln-NH2] |
| 0.026 | 20.7 | – | CC(=O)N1CCC[C@]12CC=CCCCC1(CCCC=CCCCOC(=O)N3CC[C@@](C(=O)N[C@@H](Cc4ccsc4)C(=O)N[C@@H](Cc4csc5ccccc45)C(=O)N[C@@H](CCC(N)=O)C(N)=O)(C3)NC(=O)[C@H](CC(C)C)NC(=O)[C@H](Cc3ccccc3)NC(=O)[C@H](C)NC(=O)[C@H](C)NC(=O)[C@H](CCC(N)=O)NC(=O)[C@H](CC(=O)O)NC1=O)NC(=O)[C@H](CC(C)(C)C)NC(=O)[C@H](CC(=O)O)NC2=O (stereo partly drawn) [I-1440, Ac-PL3-Asp-Npg-B5-Asp-Gln-Ala-Ala-Phe-Leu-PyrS2-3Thi-BztA-Gln-NH2] |

The next lines start with the molecule.

| SMILES | IC50 [1] [µM] | IC50 ([2]; absolute IC50) [µM] | IC50 [2] [µM] |
| --- | --- | --- | --- |
| CC(=O)N1CC2CC1C(=O)N[C@@H](CC(=O)O)C(=O)N[C@@H](CC(C)(C)C)C(=O)NC1(CCCCCCCCOC(=O)N3CC[C@@](C(=O)N[C@@H](Cc4ccsc4)C(=O)N[C@@H](Cc4csc5ccccc45)C(=O)N[C@@H](CCC(N)=O)C(N)=O)(C3)NC(=O)[C@H](CC(C)C)NC(=O)[C@H](Cc3ccccc3)NC(=O)[C@H](C)NC(=O)[C@H](C)NC(=O)[C@H](CN(CC(=O)O)CC(F)(F)F)NC(=O)[C@H](CC(=O)O)NC1=O)CCCCCCOc1cccc(c1)C(=O)O2 (stereo partly drawn) [I-2328, Ac-HypBzEs3OAllyl-Asp-Npg-B5-Asp-TfeGA-Ala-Ala-Phe-Leu-PyrS2-3Thi-BztA-Gln-NH2] | 0.17 | > 20 | – |
| CC(=O)N1CCC[C@]12CC=CCCCC1(CCCC=CCCCOC(=O)N3CC[C@@](C(=O)N[C@@H](Cc4ccsc4)C(=O)N[C@@H](Cc4csc5ccccc45)C(=O)N[C@@H](C)C(N)=O)(C3)NC(=O)[C@H](CC(C)C)NC(=O)[C@H](Cc3ccccc3)NC(=O)[C@@H](C)NC(=O)[C@H](C)NC(=O)[C@H](Cc3cccc(C(=O)O)c3)NC(=O)[C@H](CC(=O)O)NC1=O)NC(=O)[C@H](CC(C)(C)C)NC(=O)[C@H](CC(=O)O)NC2=O (stereo partly drawn) [I-2097, Ac-PL3-Asp-Npg-B5-Asp-3COOHF-Ala-dAla-Phe-Leu-PyrS2-3Thi-BztA-Ala-NH2] | 0.023 | – | 22.3 |
| CC(=O)N1CCC[C@]12CC=CCCCC1(CCCC=CCCCOC(=O)N3CC[C@@](C(=O)N[C@@H](Cc4ccsc4)C(=O)N[C@@H](Cc4csc5ccccc45)C(=O)N[C@@H](CCC(N)=O)C(N)=O)(C3)NC(=O)[C@H](CC(C)C)NC(=O)[C@H](Cc3ccccc3)NC(=O)[C@H](CCN3CCC(F)(F)CC3)NC(=O)[C@H](C)NC(=O)[C@H](CC(=O)O)NC(=O)[C@H](CC(=O)O)NC1=O)NC(=O)[C@H](CC(C)(C)C)NC(=O)[C@H](CC(=O)O)NC2=O (stereo partly drawn) [I-1505, Ac-PL3-Asp-Npg-B5-Asp-Asp-Ala-F2PipAbu-Phe-Leu-PyrS2-3Thi-BztA-Gln-NH2] | 0.039 | > 20 | – |
